From patent US20090181948A1, “DIAMINE DERIVATIVE” (KYOWA HAKKO KOGYO CO., LTD., priority 2005, published 2009)

Biological target: T1, histamine H3 receptor (Rattus norvegicus, UniProt Q9QYN8)
T1 construct: from tissue; host or cells: rat striatum (Sprague-Dawley, male, 6 weeks), membrane homogenate
Assay: Histamine H3 receptor binding assay ([3H]-Nα-methylhistamine binding to rat striatum homogenate)
Details: 1 μmol/L test compound; [3H]-Nα-methylhistamine 1 nmol/L; striata of Sprague-Dawley male rats, 25° C., 1 hour; read-out: Inhibition ratio of [3H]-Nα-methylhistamine binding
Procedure: To the striata of Sprague-Dawley male rats (6 weeks of age), a 10-fold volume of lysis buffer {50 mmol/L [[…] (Tris)]/HCl (pH 7.4), 5 mmol/L ethylenediaminetetraacetic acid (EDTA), a protease inhibitor mixture [1 mg/mL phenylmethylsulfonyl fluoride (PMSF), 1 μg/mL pepstatin A, 1 μg/mL leupeptin, 1 μg/mL chymostatin]} was added and the striata were homogenized. The resulting homogenate was centrifuged (30,000×g, 4° C., 30 min), and the obtained precipitate was resuspended in a 10-fold volume of lysis buffer, followed by centrifugation under the same condition. To the obtained precipitate, a 3-fold volume of lysis buffer was added to suspend the precipitate, and the resulting tissue homogenate was used for a test.
A test compound was dissolved in an assay buffer [50 mmol/L Tris/HCl (pH 7.4), 5 mmol/L EDTA], and [^3H]-N^α-methylhistamine (1 nmol/L) and the tissue homogenate (20 μg, in terms of protein amount) were added thereto, and then, the mixture was incubated at 25° C. for 1 hour. Then, the reaction was terminated by rapid suction filtration on a glass filter [GF/B: Whatman, previously soaked in 0.3 w/v % polyethylenimine for about 30 min]. Then, the glass filter was washed three times with 3 mL of assay buffer. This glass filter was transferred into a scintillation vial and dried at 60° C. for 30 minutes. Then, 0.5 mL of Ultimagold (Perkin Elmer) was added thereto, and the radioactivity (binding amount of [^3H]-N^α-methylhistamine) was measured using a liquid scintillation counter. The obtained value was used as a binding amount in the presence of the test compound. The same procedure as described above was carried out in the absence of the test compound, and the binding amount of [^3H]-N^α-methylhistamine obtained at this time was used as a binding amount in the absence of the test compound. Further, the binding amount of [^3H]-N^α-methylhistamine obtained in the presence of 10 μmol/L thioperamide was used as a non-specific binding amount. An inhibitory action of [^3H]-N^α-methylhistamine binding was represented by an inhibition ratio in terms of 1 μmol/L of the test compound calculated by the following Equation (1).
Inhibition ratio(%)={1−[(Binding amount in the presence of test compound)−(Non-specific binding amount)]/[(Binding amount in the absence of test compound)−(Non-specific binding amount)]}×100 (1)

T1 sequence (Q9QYN8 whole entry): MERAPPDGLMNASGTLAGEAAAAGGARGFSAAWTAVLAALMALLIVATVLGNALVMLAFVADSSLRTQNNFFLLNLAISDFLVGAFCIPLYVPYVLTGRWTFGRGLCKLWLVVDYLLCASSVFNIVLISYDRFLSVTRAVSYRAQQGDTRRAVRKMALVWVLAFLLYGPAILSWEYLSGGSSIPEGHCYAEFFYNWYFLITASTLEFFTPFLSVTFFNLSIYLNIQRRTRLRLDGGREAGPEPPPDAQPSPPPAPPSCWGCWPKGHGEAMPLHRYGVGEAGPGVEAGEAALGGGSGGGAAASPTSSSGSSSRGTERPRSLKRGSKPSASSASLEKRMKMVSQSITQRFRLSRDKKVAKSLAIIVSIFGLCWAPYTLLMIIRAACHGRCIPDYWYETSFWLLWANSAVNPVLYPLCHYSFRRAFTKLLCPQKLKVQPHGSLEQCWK

inhibition at 1 µM [%] | SMILES
≥ 80 | CC1CCCN1CCCN1CCN(CCN2C[C@H](C)C[C@H](C)C2)C1=C(C#N)C#N (relative stereo) [Compound 20, {1-[2-(Cis-3,5-dimethylpiperidino)ethyl]-3-[3-(2-methylpyrrolidin-1-yl)propyl]imidazolidin-2-ylidene}malononitrile]
≥ 80 | N#CC(C#N)=C(NCCCN1CCCCC1)NCCCN1CCCCC1 [Compound 2, [Bis(3-piperidinopropylamino)methylene]malononitrile]
≥ 80 | N#CC(C#N)=C1N(CCN2CCCCC2)CCN1CCN1CCCCC1 [Compound 5, [1,3-Bis(2-piperidinoethyl)imidazolidin-2-ylidene]malononitrile]
≥ 80 | N#CC(C#N)=C1N(CCCCN2CCCCC2)CCN1CCCN1CCCCC1 [Compound 8, [1-(4-Piperidinobutyl)-3-(3-piperidinopropyl)imidazolidin-2-ylidene]malononitrile]
≥ 80 | N#CC(C#N)=C1N(CCCCN2CCCCC2)CCN1CCCCN1CCCCC1 [Compound 9, [1,3-Bis(4-piperidinobutyl)imidazolidin-2-ylidene]malononitrile]
≥ 80 | CC1CC(C)CN(CCN2CCN(CCCN3CCCCC3)C2=C(C#N)C#N)C1 (centres unmarked) [Compound 13, {1-[2-(3,5-Dimethylpiperidino)ethyl]-3-(3-piperidinopropyl)imidazolidin-2-ylidene}malononitrile]
≥ 80 | CC1CC(C)CN(CCCN2CCN(CCN3CC(C)CC(C)C3)C2=C(C#N)C#N)C1 (centres unmarked) [Compound 17, {1-[2-(3,5-Dimethylpiperidino)ethyl]-3-[3-(3,5-dimethylpiperidino)propyl]imidazolidin-2-ylidene}malononitrile]
≥ 80 | C[C@@H]1C[C@H](C)CN(CCN2CCN(CCCN3CCCC3)C2=C(C#N)C#N)C1 [Compound 18, {1-[2-(Cis-3,5-dimethylpiperidino)ethyl]-3-[3-(pyrrolidin-1-yl)propyl]imidazolidin-2-ylidene}malononitrile]
≥ 80 | C[C@@H]1C[C@H](C)CN(CCN2CCN(CCCN3CC=CCC3)C2=C(C#N)C#N)C1 [Compound 27, {1-[3-(1,2,3,6-Tetrahydropyridin-1-yl)propyl]-3-[2-(cis-3,5-dimethylpiperidino)ethyl]imidazolidin-2-ylidene}malononitrile]
≥ 80 | CC1CCCN1CCCN1CCN(CCN2CCCCC2)C1=C(C#N)C#N (centres unmarked) [Compound 33, {1-[3-(2-Methylpyrrolidin-1-yl)propyl]-3-(2-piperidinoethyl)imidazolidin-2-ylidene}malononitrile]
≥ 80 | N#CC(C#N)=C1N(CCCN2CCC(C#N)CC2)CCN1CCN1CCCCC1 [Compound 40, {1-[3-(4-Cyanopiperidino)propyl]-3-(2-piperidinoethyl)imidazolidin-2-ylidene}malononitrile]
≥ 80 | CC1CC(C)CN(CCN2CCN(CCCN3CCC(C#N)CC3)C2=C(C#N)C#N)C1 (centres unmarked) [Compound 42, {1-[3-(4-Cyanopiperidino)propyl]-3-[2-(3,5-dimethylpiperidino)ethyl]imidazolidin-2-ylidene}malononitrile]
≥ 80 | N#CC(C#N)=C1N(CCCN2CCCCCC2)CCN1CCN1CCCCC1 [Compound 46, {1-[3-(Azepan-1-yl)propyl]-3-(2-piperidinoethyl)imidazolidin-2-ylidene}malononitrile]
≥ 80 | CCN(CC)CCCN1CCN(CCN2CCCCC2)C1=C(C#N)C#N [Compound 48, [1-(3-Diethylaminopropyl)-3-(2-piperidinoethyl)imidazolidin-2-ylidene]malononitrile]
≥ 80 | CCN(CC)CCN1CCN(CCCN2CCCCC2)C1=C(C#N)C#N [Compound 49, [1-(2-Diethylaminoethyl)-3-(3-piperidinopropyl)imidazolidin-2-ylidene]malononitrile]
≥ 80 | C[C@@H]1CCC[C@H](C)N1CCCN1CCN(CCN2CCCCC2)C1=C(C#N)C#N [Compound 50, {1-[3-(Cis-2,6-dimethylpiperidino)propyl]-3-(2-piperidinoethyl)imidazolidin-2-ylidene}malononitrile Difumarate]

inhibition at 1 µM [%] | SMILES
≥ 80 | N#CC(C#N)=C1N(CCCN2CCc3ccccc3C2)CCN1CCN1CCCCC1 [Compound 52, {1-[3-(1,2,3,4-Tetrahydroisoquinolin-2-yl)propyl]-3-(2-piperidinoethyl)imidazolidin-2-ylidene}malononitrile]
≥ 80 | N#CC(C#N)=C1N(CCCN2CCCCC2)CCN1CCN1CCc2ccccc2C1 [Compound 53, {1-[2-(1,2,3,4-Tetrahydroisoquinolin-2-yl)ethyl]-3-(3-piperidinopropyl)imidazolidin-2-ylidene}malononitrile]
≥ 80 | CC1CCCN1CCN1CCN(CCCN2CCCC2)C1=C(C#N)C#N (centres unmarked) [Compound 54, {1-[2-(2-Methylpyrrolidin-1-yl)ethyl]-3-[3-(3-pyrrolidin-1-yl)propyl]imidazolidin-2-ylidene}malononitrile]
≥ 80 | N#CC(C#N)=C1N(CCCNC2CCCCC2)CCN1CCN1CCCCC1 [Compound 62, [1-(3-Cyclohexylaminopropyl)-3-(2-piperidinoethyl)imidazolidin-2-ylidene]malononitrile]
≥ 80 | N#CC(C#N)=C1N(CCCN2CCCCC2)CCN1CCNC1CCCCC1 [Compound 63, [1-(2-Cyclohexylaminoethyl)-3-(3-piperidinopropyl)imidazolidin-2-ylidene]malononitrile Difumarate]
≥ 80 | N#CC(C#N)=C1N(CCCN2CCCCCC2)CCN1CCCN1CCCCCC1 [Compound 66, {1,3-Bis[3-(azepan-1-yl)propyl]imidazolidin-2-ylidene}malononitrile]
≥ 80 | N#CC(C#N)=C1N(CCCN2CC=CCC2)CCN1CCCN1CCCCCC1 [Compound 68, {1-[3-(Azepan-1-yl)propyl]-3-[3-(1,2,3,6-tetrahydropyridin-1-yl)propyl]imidazolidin-2-ylidene}malononitrile]
≥ 80 | N#CC(C#N)=C1N(CCCN2CCCCCC2)CCN1CCCN1CCCC1 [Compound 69, {1-[3-(Azepan-1-yl)propyl]-3-[3-(pyrrolidin-1-yl)propyl]imidazolidin-2-ylidene}malononitrile]
≥ 80 | CC1CC(C)CN(CCCN2CCN(CCCN3CCCCCC3)C2=C(C#N)C#N)C1 (centres unmarked) [Compound 70, {1-[3-(Azepan-1-yl)propyl]-3-[3-(3,5-dimethylpiperidino)propyl]imidazolidin-2-ylidene}malononitrile]
≥ 80 | CN1CCN(CCCN2CCN(CCCN3CCCCC3)C2=C(C#N)C#N)CC1 [Compound 76, {1-[3-(4-Methylpiperazin-1-yl)propyl]-3-(3-piperidinopropyl)imidazolidin-2-ylidene}malononitrile]
≥ 80 | CC1CCCN1CCCN1CCN(CCCN2CCN(C)CC2)C1=C(C#N)C#N (centres unmarked) [Compound 78, {1-[3-(4-Methylpiperazin-1-yl)propyl]-3-[3-(2-methylpyrrolidin-1-yl)propyl]imidazolidin-2-ylidene}malononitrile]
≥ 80 | CC1CCCN(CCCN2CCN(CCCN3CCOCC3)C2=C(C#N)C#N)C1 (centres unmarked) [Compound 80, {1-[3-(3-Methylpiperidino)propyl]-3-(3-morpholinopropyl)imidazolidin-2-ylidene}malononitrile]
≥ 80 | N#CC(C#N)=C1N(CCCN2CCCC2)CCN1CCCN1CCOCC1 [Compound 82, {1-(3-Morpholinopropyl)-3-[3-(pyrrolidin-1-yl)propyl]imidazolidin-2-ylidene}malononitrile]
≥ 80 | N#CC(C#N)=C1N(CCCN2CCCCC2)CCN1CCCN1CCOCC1 [Compound 83, [1-(3-Morpholinopropyl)-3-(3-piperidinopropyl)imidazolidin-2-ylidene]malononitrile]
≥ 80 | CC1CCCN1CCCN1CCN(CCCN2CCOCC2)C1=C(C#N)C#N (centres unmarked) [Compound 85, {1-[3-(2-Methylpyrrolidin-1-yl)propyl]-3-(3-morpholinopropyl)imidazolidin-2-ylidene}malononitrile]
≥ 80 | CC1CCCCN1CCCN1CCN(CCCN2CC=CCC2)C1=C(C#N)C#N (centres unmarked) [Compound 86, {1-[3-(1,2,3,6-Tetrahydropyridin-1-yl)propyl]-3-[3-(2-methylpiperidino)propyl]imidazolidin-2-ylidene}malononitrile]
